The numbers were not newly measured in patent US7388019B2, “3-amino-4-phenylbutanoic acid derivatives as dipeptidyl peptidase inhibitors for the treatment or prevention of diabetes” (Merck & Co., Inc., priority 2003, dated 2008), which cites them from elsewhere.

The conditions of series [1]: rats.
The conditions of series [2]: mouse, cyclophosphamide-induced neutropenia.
Series [3] has as its target T1, DP-IV (Homo sapiens, UniProt P27487).
T1 construct: GRF is rapidly degraded in plasma to GRF[3-44]; from tissue
The following applies: plasma.

T1 sequence (P27487 39-766 limits assumed): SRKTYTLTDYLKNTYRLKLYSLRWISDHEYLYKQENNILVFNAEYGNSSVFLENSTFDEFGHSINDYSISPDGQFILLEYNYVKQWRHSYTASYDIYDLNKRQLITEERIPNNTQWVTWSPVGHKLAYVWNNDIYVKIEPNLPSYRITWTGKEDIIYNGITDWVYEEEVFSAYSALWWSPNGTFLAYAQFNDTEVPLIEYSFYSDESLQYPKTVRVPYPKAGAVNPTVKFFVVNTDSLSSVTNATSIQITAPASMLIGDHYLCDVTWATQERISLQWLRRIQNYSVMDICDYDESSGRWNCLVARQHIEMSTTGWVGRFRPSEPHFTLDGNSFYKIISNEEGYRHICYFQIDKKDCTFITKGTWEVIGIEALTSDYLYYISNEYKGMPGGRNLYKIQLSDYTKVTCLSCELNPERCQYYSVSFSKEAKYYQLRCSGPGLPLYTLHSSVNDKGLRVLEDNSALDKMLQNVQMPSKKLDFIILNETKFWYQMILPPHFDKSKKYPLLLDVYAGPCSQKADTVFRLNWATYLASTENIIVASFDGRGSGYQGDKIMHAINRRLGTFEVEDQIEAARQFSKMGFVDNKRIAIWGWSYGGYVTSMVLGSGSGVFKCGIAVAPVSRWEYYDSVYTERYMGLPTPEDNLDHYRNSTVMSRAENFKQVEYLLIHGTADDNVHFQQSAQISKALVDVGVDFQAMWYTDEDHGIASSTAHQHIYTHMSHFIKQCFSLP

For `CC(C)N1CCC(c2ccccc2)(c2ccccc2)CC1` [Prodipine, Pro-Pro-diphenyl-phosphonate], the cardiac allograft survival entry in series [1] was “double cardiac allograft survival in rats from day 7 to day 14”.
Turning to `CC(C)[C@H](N)C(=O)N1CCC[C@H]1B(O)O` [Val-Boro-Pro], in series [2], the hematopoiesis result is on record as “stimulated hematopoiesis”.
With diprotin A, the “degradation of GRF to GRF[3-44]” value in series [3] was “prevented”.
